Test results published in ChEMBL document CHEMBL3885881, “DrugMatrix”.

Species: Rattus norvegicus
Test: DrugMatrix - Regimen: Daily Repeat
Type: toxicity, organism-based, Sprague-Dawley
Design: regimen Daily Repeat, gender Male, age 6-8 weeks
Settings: in vivo, po, 500 mg/kg, route oral GAVAGE, dose level High, vehicle 100 % WATER; for ABSOLUTE BASOPHIL / ABSOLUTE EOSINOPHIL / ABSOLUTE LYMPHOCYTE / ABSOLUTE MONOCYTE / ABSOLUTE SEGMENTED NEUTROPHIL / BASOPHIL / EOSINOPHIL / ERYTHROCYTE COUNT / HEMATOCRIT / HEMOGLOBIN / LEUKOCYTE COUNT / LYMPHOCYTE / MEAN CORPUSCULAR HEMOGLOBIN / MEAN CORPUSCULAR HEMOGLOBIN CONCENTRATION / MEAN CORPUSCULAR VOLUME / MONOCYTE / NEUTROPHIL / NUCLEATED RED BLOOD CELLS / PLATELET COUNT: tissue Blood; for ALANINE AMINOTRANSFERASE / ALBUMIN / ALKALINE PHOSPHATASE / ASPARTATE AMINOTRANSFERASE / BLOOD UREA NITROGEN / CARBON DIOXIDE / CHLORIDE / CHOLESTEROL / CREATINE PHOSPHOKINASE / CREATININE / GLUCOSE / LACTATE DEHYDROGENASE / LIPASE / PHOSPHORUS / POTASSIUM / SODIUM / TOTAL BILIRUBIN / TOTAL PROTEIN / URIC ACID: tissue Plasma

Cc1c(O)c(=O)ccn1C [DEFERIPRONE]
ABSOLUTE BASOPHIL (72 h, time 3 day): 0 CELLS/uL | ABSOLUTE EOSINOPHIL (72 h, time 3 day): 97 CELLS/uL | ABSOLUTE LYMPHOCYTE (72 h, time 3 day): 8507 CELLS/uL | ABSOLUTE MONOCYTE (72 h, time 3 day): 223 CELLS/uL | ABSOLUTE SEGMENTED NEUTROPHIL (72 h, time 3 day): 223 CELLS/uL | BASOPHIL (72 h, time 3 day): 0% | EOSINOPHIL (72 h, time 3 day): 1% | ERYTHROCYTE COUNT (72 h, time 3 day): 4.97 x10E6/uL | HEMATOCRIT (72 h, time 3 day): 30.95% | HEMOGLOBIN (72 h, time 3 day): 11.7 G/DL | LEUKOCYTE COUNT (72 h, time 3 day): 9.05 x10E3/uL | LYMPHOCYTE (72 h, time 3 day): 94% | MEAN CORPUSCULAR HEMOGLOBIN (72 h, time 3 day): 23.55 pg | MEAN CORPUSCULAR HEMOGLOBIN CONCENTRATION (72 h, time 3 day): 37.8 G/DL | MEAN CORPUSCULAR VOLUME (72 h, time 3 day): 62.15 fL | MONOCYTE (72 h, time 3 day): 2.5% | NEUTROPHIL (72 h, time 3 day): 2.5% | NUCLEATED RED BLOOD CELLS (72 h, time 3 day): 0 /100WBC | PLATELET COUNT (72 h, time 3 day): 1456.5 x10E3/uL | ALANINE AMINOTRANSFERASE (72 h, time 3 day): 39 u/L | ALBUMIN (72 h, time 3 day): 4.4 G/DL | ALKALINE PHOSPHATASE (72 h, time 3 day): 373 u/L | ASPARTATE AMINOTRANSFERASE (72 h, time 3 day): 80 u/L | BLOOD UREA NITROGEN (72 h, time 3 day): 18.5 mg/dL | CARBON DIOXIDE (72 h, time 3 day): 22.5 mmol/L | CHLORIDE (72 h, time 3 day): 105.5 MEQ/L | CHOLESTEROL (72 h, time 3 day): 119 mg/dL | CREATINE PHOSPHOKINASE (72 h, time 3 day): 322.5 u/L | CREATININE (72 h, time 3 day): 0.18 mg/dL | GLUCOSE (72 h, time 3 day): 131 mg/dL | LACTATE DEHYDROGENASE (72 h, time 3 day): 239 u/L | LIPASE (72 h, time 3 day): 10 u/L | PHOSPHORUS (72 h, time 3 day): 11.5 mg/dL | POTASSIUM (72 h, time 3 day): 6.21 MEQ/L | SODIUM (72 h, time 3 day): 143.8 MEQ/L | TOTAL BILIRUBIN (72 h, time 3 day): 0.25 mg/dL | TOTAL PROTEIN (72 h, time 3 day): 6 G/DL | URIC ACID (72 h, time 3 day): 1.45 mg/dL | ABSOLUTE BASOPHIL (120 h, time 5 day): 0 CELLS/uL | ABSOLUTE EOSINOPHIL (120 h, time 5 day): 0 CELLS/uL | ABSOLUTE LYMPHOCYTE (120 h, time 5 day): 9110 CELLS/uL | ABSOLUTE MONOCYTE (120 h, time 5 day): 78 CELLS/uL | ABSOLUTE SEGMENTED NEUTROPHIL (120 h, time 5 day): 412 CELLS/uL | BASOPHIL (120 h, time 5 day): 0% | EOSINOPHIL (120 h, time 5 day): 0% | ERYTHROCYTE COUNT (120 h, time 5 day): 5.3 x10E6/uL | HEMATOCRIT (120 h, time 5 day): 33.8% | HEMOGLOBIN (120 h, time 5 day): 12.93 G/DL | LEUKOCYTE COUNT (120 h, time 5 day): 9.6 x10E3/uL | LYMPHOCYTE (120 h, time 5 day): 95.33% | MEAN CORPUSCULAR HEMOGLOBIN (120 h, time 5 day): 24.43 pg | MEAN CORPUSCULAR HEMOGLOBIN CONCENTRATION (120 h, time 5 day): 38.27 G/DL | MEAN CORPUSCULAR VOLUME (120 h, time 5 day): 63.8 fL | MONOCYTE (120 h, time 5 day): 0.67% | NEUTROPHIL (120 h, time 5 day): 4% | NUCLEATED RED BLOOD CELLS (120 h, time 5 day): 0 /100WBC | PLATELET COUNT (120 h, time 5 day): 1024.33 x10E3/uL | ALANINE AMINOTRANSFERASE (120 h, time 5 day): 34.33 u/L | ALBUMIN (120 h, time 5 day): 4.7 G/DL | ALKALINE PHOSPHATASE (120 h, time 5 day): 261 u/L | ASPARTATE AMINOTRANSFERASE (120 h, time 5 day): 61.33 u/L | BLOOD UREA NITROGEN (120 h, time 5 day): 17 mg/dL | CARBON DIOXIDE (120 h, time 5 day): 26.33 mmol/L | CHLORIDE (120 h, time 5 day): 109.33 MEQ/L | CHOLESTEROL (120 h, time 5 day): 127 mg/dL | CREATINE PHOSPHOKINASE (120 h, time 5 day): 232.33 u/L | CREATININE (120 h, time 5 day): 0.21 mg/dL | GLUCOSE (120 h, time 5 day): 140.33 mg/dL | LACTATE DEHYDROGENASE (120 h, time 5 day): 60.33 u/L | LIPASE (120 h, time 5 day): 9 u/L | PHOSPHORUS (120 h, time 5 day): 11.03 mg/dL | POTASSIUM (120 h, time 5 day): 6.28 MEQ/L | SODIUM (120 h, time 5 day): 148.93 MEQ/L | TOTAL BILIRUBIN (120 h, time 5 day): 0.2 mg/dL | TOTAL PROTEIN (120 h, time 5 day): 6.63 G/DL | URIC ACID (120 h, time 5 day): 1.83 mg/dL
